Test results from PubChem BioAssay AID1963858 (Molecular Pharmacology Branch, DTP, NCI, 2024).

System: HOP-62 multicell spheroids with HUVEC/MSC, viability
Experiment: Anticancer human tumor HOP-62 cell line growth inhibition [KRAS2];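 further: viability read after a week of compound exposure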;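 on viability, T/C: 100% = DMSO vehicle-treated spheroids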
Conditions: for IC50: curve of first compound; for viability, T/C: stronger effect = lower value
Outline: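 KRAS-mutant tumor cells were grown as spheroids with HUVEC endothelial cells and human MSCs as stroma. Targeted agents were tested alone and with KRAS pathway inhibitors. Doses started at or near clinical Cmax, or 10 microM, descending half-log.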

[1] = second compound 0.0316 µM, first compound 0.000316 µM
[2] = second compound 0.0316 µM, first compound 0.001 µM
[3] = second compound 0.0316 µM, first compound 0.00316 µM
[4] = second compound 0.0316 µM, first compound 0.01 µM
[5] = second compound 0.0316 µM, first compound 0.0316 µM
[6] = second compound 0.0316 µM, first compound 0.1 µM
[7] = second compound 0.1 µM, first compound 0.000316 µM
[8] = second compound 0.1 µM, first compound 0.001 µM
[9] = second compound 0.1 µM, first compound 0.00316 µM
[10] = second compound 0.1 µM, first compound 0.01 µM
[11] = second compound 0.1 µM, first compound 0.0316 µM
[12] = second compound 0.1 µM, first compound 0.1 µM
[13] = second compound 0.316 µM, first compound 0.000316 µM
[14] = second compound 0.316 µM, first compound 0.001 µM
[15] = second compound 0.316 µM, first compound 0.00316 µM
[16] = second compound 0.316 µM, first compound 0.01 µM
[17] = second compound 0.316 µM, first compound 0.0316 µM
[18] = second compound 0.316 µM, first compound 0.1 µM
[19] = second compound 1 µM, first compound 0.000316 µM
[20] = second compound 1 µM, first compound 0.001 µM
[21] = second compound 1 µM, first compound 0.00316 µM
[22] = second compound 1 µM, first compound 0.01 µM
[23] = second compound 1 µM, first compound 0.0316 µM
[24] = second compound 1 µM, first compound 0.1 µM
[25] = second compound 3.16 µM, first compound 0.000316 µM
[26] = second compound 3.16 µM, first compound 0.001 µM
[27] = second compound 3.16 µM, first compound 0.00316 µM
[28] = second compound 3.16 µM, first compound 0.01 µM
[29] = second compound 3.16 µM, first compound 0.0316 µM
[30] = second compound 3.16 µM, first compound 0.1 µM
[31] = second compound 0.0316 µM, first compound 0.316 µM
[32] = second compound 0.0316 µM, first compound 1 µM
[33] = second compound 0.0316 µM, first compound 3.16 µM
[34] = second compound 0.0316 µM, first compound 10 µM
[35] = second compound 0.1 µM, first compound 0.316 µM
[36] = second compound 0.1 µM, first compound 1 µM
[37] = second compound 0.1 µM, first compound 3.16 µM
[38] = second compound 0.1 µM, first compound 10 µM
[39] = second compound 0.316 µM, first compound 0.316 µM
[40] = second compound 0.316 µM, first compound 1 µM
[41] = second compound 0.316 µM, first compound 3.16 µM
[42] = second compound 0.316 µM, first compound 10 µM
[43] = second compound 1 µM, first compound 0.316 µM
[44] = second compound 1 µM, first compound 1 µM
[45] = second compound 1 µM, first compound 3.16 µM
[46] = second compound 1 µM, first compound 10 µM
[47] = second compound 3.16 µM, first compound 0.316 µM
[48] = second compound 3.16 µM, first compound 1 µM
[49] = second compound 3.16 µM, first compound 3.16 µM
[50] = second compound 3.16 µM, first compound 10 µM

Structure (SMILES) | IC50 (second compound 0.0316 µM) | IC50 (second compound 0.1 µM) | IC50 (second compound 0.316 µM) | IC50 (second compound 1 µM) | IC50 (second compound 3.16 µM) | viability, T/C [1] | viability, T/C [2] | viability, T/C [3] | viability, T/C [4] | viability, T/C [5] | viability, T/C [6] | viability, T/C [7] | viability, T/C [11] | viability, T/C [12] | viability, T/C [17] | viability, T/C [18] | viability, T/C [23] | viability, T/C [24] | viability, T/C [29] | viability, T/C [30] | also measured
CC(C)n1nc(-c2ccc3oc(N)nc3c2)c2c(N)ncnc21 + C=CC(=O)N1CCN(c2nc(OCC3CCCN3C)nc3c2CCN(c2cccc4cccc(C)c24)C3)CC1CC#N | 0.471 nM | < 0.316 nM | < 0.316 nM | < 0.316 nM | < 0.316 nM | 57.1% | 37% | 23.5% | 17.5% | 12.1% | 9.28% | 36.3% | 11% | 8.68% | 8.56% | 7.08% | 7.25% | 5.88% | 0.63% | 0.48% | viability, T/C [8]: 30.6%; viability, T/C [9]: 14.9%; viability, T/C [10]: 12.8%; viability, T/C [13]: 29.9%; viability, T/C [14]: 19.6%; viability, T/C [15]: 14.9%; viability, T/C [16]: 10.6%; viability, T/C [19]: 23.1%; viability, T/C [20]: 16.1%; viability, T/C [21]: 13.3%; viability, T/C [22]: 9.5%; viability, T/C [25]: 5%; viability, T/C [26]: 0.34%; viability, T/C [27]: 2.87%; viability, T/C [28]: 0.44%
CC1(C)CCC(CN2CCN(c3ccc(C(=O)NS(=O)(=O)c4ccc(NCC5CCOCC5)c([N+](=O)[O-])c4)c(Oc4cnc5[nH]ccc5c4)c3)CC2)=C(c2ccc(Cl)cc2)C1 + C=CC(=O)N1CCN(c2nc(OCC3CCCN3C)nc3c2CCN(c2cccc4cccc(C)c24)C3)CC1CC#N | 1510 nM | < 31.6 nM | < 31.6 nM | < 31.6 nM | < 31.6 nM | – | – | – | – | 58.8% | 54.1% | – | 48.9% | 41.4% | 36.6% | 41.6% | 24.6% | 22.6% | 1.22% | 0.15% | viability, T/C [31]: 54.9%; viability, T/C [32]: 56%; viability, T/C [33]: 39.5%; viability, T/C [34]: 22.7%; viability, T/C [35]: 37.8%; viability, T/C [36]: 36.4%; viability, T/C [37]: 37.2%; viability, T/C [38]: 21.6%; viability, T/C [39]: 26.4%; viability, T/C [40]: 38.2%; viability, T/C [41]: 26.9%; viability, T/C [42]: 16%; viability, T/C [43]: 27.1%; viability, T/C [44]: 22.9%; viability, T/C [45]: 24.1%; viability, T/C [46]: 5.4%; viability, T/C [47]: 0.14%; viability, T/C [48]: 0.16%; viability, T/C [49]: 0.14%; viability, T/C [50]: 0.18%
COc1cc2nccc(Oc3ccc(NC(=O)C4(C(=O)Nc5ccc(F)cc5)CC4)cc3)c2cc1OC + C=CC(=O)N1CCN(c2nc(OCC3CCCN3C)nc3c2CCN(c2cccc4cccc(C)c24)C3)CC1CC#N | 1910 nM | 1060 nM | 31.6 nM | < 31.6 nM | < 31.6 nM | – | – | – | – | 64.8% | 68.5% | – | 50.5% | 51.4% | 42% | 38.5% | 27.4% | 31.1% | 0.14% | 0.75% | viability, T/C [31]: 64%; viability, T/C [32]: 77.8%; viability, T/C [33]: 35.4%; viability, T/C [34]: 8.75%; viability, T/C [35]: 49.5%; viability, T/C [36]: 53.4%; viability, T/C [37]: 29%; viability, T/C [38]: 12%; viability, T/C [39]: 47.9%; viability, T/C [40]: 53.8%; viability, T/C [41]: 24.9%; viability, T/C [42]: 8.51%; viability, T/C [43]: 25.3%; viability, T/C [44]: 30.6%; viability, T/C [45]: 19.9%; viability, T/C [46]: 0.15%; viability, T/C [47]: 0.15%; viability, T/C [48]: 0.37%; viability, T/C [49]: 0.13%; viability, T/C [50]: 0.23%
Cn1ncnc1[C@H]1c2n[nH]c(=O)c3cc(F)cc(c23)N[C@@H]1c1ccc(F)cc1 + C=CC(=O)N1CCN(c2nc(OCC3CCCN3C)nc3c2CCN(c2cccc4cccc(C)c24)C3)CC1CC#N | > 100 nM | 9.86 nM | < 0.316 nM | < 0.316 nM | < 0.316 nM | 88.8% | 79.7% | 82.3% | 75.7% | 74.3% | 59.7% | 64.6% | 41.9% | 44.7% | 30.6% | 33% | 24.8% | 22.1% | 0.51% | 0.71% | viability, T/C [8]: 58.3%; viability, T/C [9]: 74%; viability, T/C [10]: 49.8%; viability, T/C [13]: 48.7%; viability, T/C [14]: 42%; viability, T/C [15]: 40.6%; viability, T/C [16]: 38.5%; viability, T/C [19]: 32.4%; viability, T/C [20]: 30.2%; viability, T/C [21]: 27.1%; viability, T/C [22]: 25.7%; viability, T/C [25]: 0.61%; viability, T/C [26]: 0.57%; viability, T/C [27]: 0.44%; viability, T/C [28]: 0.5%
